In patent publication US6607906B1, “Heterologous G protein coupled receptors expressed in yeast, their fusion with G proteins and use thereof in bioassay” (priority 1994, dated 2003):
Read-outs that look alike come from different tables or passages of the source. Residues, ends and D or L forms follow the SMILES beside them.

What was measured:
[1] = target: T1, rat SSTR2 somatostatin receptor subtype (Rattus norvegicus, UniProt P30680); assay: Binding of radiolabeled somatostatin 14 to membranes of yeast expressing SSTR2; conditions: for percent radioligand bound compared to untreated samples, +Gpp(NH)p: Gpp(NH)p 100 μM
T1 construct: expressed in transfected cells; host or cells: Saccharomyces cerevisiae YPH500 derivatives CY624 (Gαi2), CY602 (Gαs), CY603 (Scg1); crude membranes

rat CCKB receptor [2] = target: T2, rat CCKB receptor (Rattus norvegicus, UniProt P30553); assay: Radiolabeled agonist saturation binding of 3H-CCK-8, yeast membranes (LY631); conditions: GppNHp 100 μM, LY631 crude membranes
T2 construct: expressed in transfected cells; host or cells: Saccharomyces cerevisiae LY296 derivatives LY631 (Gpa1-Gαs chimera, pLP122) and LY628 (Gpa1-Gαi2 chimera, pLP121)
T2 sequence (P30553 1-452): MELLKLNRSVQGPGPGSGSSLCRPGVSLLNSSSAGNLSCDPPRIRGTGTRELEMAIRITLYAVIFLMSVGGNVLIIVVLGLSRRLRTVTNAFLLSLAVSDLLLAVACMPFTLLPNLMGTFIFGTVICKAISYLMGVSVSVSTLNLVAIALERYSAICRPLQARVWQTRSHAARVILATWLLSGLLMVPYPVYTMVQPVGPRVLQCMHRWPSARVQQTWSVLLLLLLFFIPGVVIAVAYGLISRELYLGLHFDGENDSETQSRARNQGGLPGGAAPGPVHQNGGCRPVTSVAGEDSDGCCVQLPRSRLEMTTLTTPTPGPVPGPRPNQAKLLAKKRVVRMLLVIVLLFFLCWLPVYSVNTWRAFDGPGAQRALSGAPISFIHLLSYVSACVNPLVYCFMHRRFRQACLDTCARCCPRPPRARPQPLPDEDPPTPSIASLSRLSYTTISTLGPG
Description: Ligand-binding to the rat CCKBreceptor expressed in yeast. Crude membrane fractions from overnight liquid cultures of LY631 cells were prepared, and agonist saturation binding assays conducted as described in Methods and Materials. Saturation binding was performed with 4-60 nM[^3H]
Radiolabeled agonist saturation binding assays. Crude yeast membrane extracts from late log phase cultures were prepared by glass-bead lysis and centrifugation at 40,000 xg following a published procedure (13). […] Non-specific binding was defined as that observed in the presence of 1 μM CCK-4.

human 5HTla receptor = target: T3, human 5HTla receptor (Homo sapiens, UniProt P08908); assay: Saturation binding of 3H-spiperone to yeast membrane fractions (strain CY382, pCHI11)
T3 construct: first 14 amino acids of yeast Ste2 (N); expressed in transfected cells; host or cells: Saccharomyces cerevisiae strain CY382 (plasmid pCHI11), membrane fractions
T3 sequence (P08908 with tags, fused parts or gaps): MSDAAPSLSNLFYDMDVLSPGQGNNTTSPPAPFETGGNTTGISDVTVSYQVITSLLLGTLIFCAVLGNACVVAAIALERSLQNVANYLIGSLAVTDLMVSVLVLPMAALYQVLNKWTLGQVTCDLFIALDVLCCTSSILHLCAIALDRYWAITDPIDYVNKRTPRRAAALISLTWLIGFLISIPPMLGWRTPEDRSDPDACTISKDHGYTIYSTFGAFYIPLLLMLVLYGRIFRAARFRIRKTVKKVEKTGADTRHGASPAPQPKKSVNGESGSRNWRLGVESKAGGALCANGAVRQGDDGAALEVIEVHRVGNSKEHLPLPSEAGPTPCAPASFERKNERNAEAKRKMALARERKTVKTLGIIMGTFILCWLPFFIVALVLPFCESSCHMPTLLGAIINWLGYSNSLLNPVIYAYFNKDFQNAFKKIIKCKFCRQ

porcine SSTR2 = assay: Agar plate growth bioassay, yeast expressing porcine SSTR2 (LY474); type: cell-based
rat CCKB receptor [3] = target: T2, rat CCKB receptor; assay: Agar plate growth bioassay, yeast expressing CCKB receptor (LY628, LY631); type: cell-based
human GRF receptor = target: T4, human GRF receptor (Homo sapiens, UniProt Q02643); assay: Agar plate growth bioassay, yeast expressing GRF receptor (CY990); type: cell-based
T4 construct: expressed in transfected cells; host or cells: Saccharomyces cerevisiae CY990 (LY296 with pJH25 and pLP122 Gpa1-Gαs)
T4 sequence (Q02643 23-423): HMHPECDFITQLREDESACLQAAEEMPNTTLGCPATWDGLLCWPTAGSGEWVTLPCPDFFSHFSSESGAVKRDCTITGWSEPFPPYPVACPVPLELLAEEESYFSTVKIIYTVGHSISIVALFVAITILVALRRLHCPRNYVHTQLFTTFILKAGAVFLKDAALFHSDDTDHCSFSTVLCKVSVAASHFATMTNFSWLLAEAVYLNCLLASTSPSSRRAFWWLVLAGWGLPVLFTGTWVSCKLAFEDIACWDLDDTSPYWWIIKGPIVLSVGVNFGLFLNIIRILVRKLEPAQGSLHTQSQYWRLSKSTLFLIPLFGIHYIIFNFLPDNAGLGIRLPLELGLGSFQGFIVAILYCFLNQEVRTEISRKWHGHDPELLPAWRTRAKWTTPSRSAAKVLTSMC

rat SSTR5 = target: T5, rat SSTR5 (Rattus norvegicus, UniProt P30938); assay: Agar plate growth bioassay, yeast expressing SSTR5 (LY620); type: cell-based
T5 construct: expressed in transfected cells; host or cells: Saccharomyces cerevisiae LY620 (LY296 with pJH19 and pLP121 Gpa1-Gαi2)
T5 sequence (P30938 1-363): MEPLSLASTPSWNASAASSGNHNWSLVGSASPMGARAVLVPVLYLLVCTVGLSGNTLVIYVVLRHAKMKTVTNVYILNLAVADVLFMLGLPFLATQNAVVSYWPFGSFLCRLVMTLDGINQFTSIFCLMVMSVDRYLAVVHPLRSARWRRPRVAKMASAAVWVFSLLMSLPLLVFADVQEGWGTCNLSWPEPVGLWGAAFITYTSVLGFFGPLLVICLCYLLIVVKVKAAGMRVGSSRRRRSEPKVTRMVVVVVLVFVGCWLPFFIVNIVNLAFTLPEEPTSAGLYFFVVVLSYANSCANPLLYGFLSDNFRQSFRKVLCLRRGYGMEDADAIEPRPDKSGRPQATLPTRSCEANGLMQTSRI

rat CCKB receptor (rat) = rat CCKB receptor (rat) (UniProt P30553); assay: cell-based or functional assay
[4] = target: rat SSTR2 somatostatin receptor subtype (rat) (UniProt P30680); assay: maximal radioligand binding, crude membranes of yeast strain CY603 (SSTR2 with Scg1)
[5] = target: rat SSTR2 somatostatin receptor subtype (rat) (UniProt P30680); assay: maximal radioligand binding, crude membranes of yeast strain CY602 (SSTR2 with Gαs)
[6] = target: rat SSTR2 somatostatin receptor subtype (rat) (UniProt P30680); assay: radioligand binding with Gpp(NH)p (100 µM), crude membranes of yeast strain CY602 (SSTR2 with Gαs)
[7] = target: porcine SSTR2 expressed from plasmid pJH17 (porcine) (UniProt P34994); assay: saturation radioligand binding, crude membranes of yeast cells bearing pJH17
[8] = target: rat SSTR2 somatostatin receptor subtype (rat) (UniProt P30680); assay: radioligand binding with Gpp(NH)p (100 µM), crude membranes of yeast strain CY603 (SSTR2 with Scg1)
[9] = target: rat SSTR2 somatostatin receptor subtype (rat) (UniProt P30680); assay: radioligand binding with Gpp(NH)p (100 µM), crude membranes of yeast strain CY624 (SSTR2 with Gαi2)
[10] = target: rat SSTR2 somatostatin receptor subtype (rat) (UniProt P30680); assay: saturation radioligand binding, membranes of yeast coexpressing SSTR2 and Scg1/Gαi2
[11] = target: rat SSTR2 somatostatin receptor subtype (rat) (UniProt P30680); assay: maximal radioligand binding, crude membranes of yeast strain CY624 (SSTR2 with Gαi2)
[12] = target: human GRF receptor (human) (UniProt Q02643); assay: cell-based or functional assay
rat SSTR2 = rat SSTR2 (Rattus norvegicus, UniProt P30680); type: cell-based
[13] = LY628 and LY631 cells, 30° C., 3 days

Chain of rat SSTR2 somatostatin receptor subtype (rat) (P30680 whole entry): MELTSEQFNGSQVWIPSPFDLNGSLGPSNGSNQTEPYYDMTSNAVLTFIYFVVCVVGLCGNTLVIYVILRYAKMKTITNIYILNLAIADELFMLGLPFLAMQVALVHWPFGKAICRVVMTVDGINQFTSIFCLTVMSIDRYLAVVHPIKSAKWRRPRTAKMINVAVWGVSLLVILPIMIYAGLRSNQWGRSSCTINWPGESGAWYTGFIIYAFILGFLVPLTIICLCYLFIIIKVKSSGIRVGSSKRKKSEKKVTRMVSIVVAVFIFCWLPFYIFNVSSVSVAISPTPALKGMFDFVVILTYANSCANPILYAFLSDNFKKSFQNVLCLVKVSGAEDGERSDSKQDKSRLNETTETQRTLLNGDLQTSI
T1 sequence (P30680 with tags, fused parts or gaps limits assumed): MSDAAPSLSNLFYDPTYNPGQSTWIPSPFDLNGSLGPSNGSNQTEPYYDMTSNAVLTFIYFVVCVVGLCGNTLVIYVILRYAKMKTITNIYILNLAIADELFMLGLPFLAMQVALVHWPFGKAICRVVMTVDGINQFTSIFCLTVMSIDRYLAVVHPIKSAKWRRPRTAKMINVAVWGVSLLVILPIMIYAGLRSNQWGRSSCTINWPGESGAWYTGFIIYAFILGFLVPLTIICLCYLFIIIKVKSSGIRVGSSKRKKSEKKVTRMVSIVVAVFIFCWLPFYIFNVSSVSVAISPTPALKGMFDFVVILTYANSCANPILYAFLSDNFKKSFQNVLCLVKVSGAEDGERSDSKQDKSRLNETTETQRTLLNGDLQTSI
Chain of rat SSTR2 (P30680 whole entry): as the sequence (P30680 whole entry) above

Compound: Nc1nc2c(ncn2[C@@H]2O[C@H](COP(=O)(O)OP(=O)(O)NP(=O)(O)O)[C@@H](O)[C@H]2O)c(=O)[nH]1 [Gpp (NH) p]
- percent radioligand bound compared to untreated samples, +Gpp(NH)p ([1]; strain CY602, Gαs): 0%
- percent radioligand bound compared to untreated samples, +Gpp(NH)p ([1]; strain CY603, Scgl): 4%
- percent radioligand bound compared to untreated samples, +Gpp(NH)p ([1]; strain CY624, Gαi): 22%
- decrease of specific binding of 3H-CCK-8 (rat CCKB receptor [2]): greater than 50%

Compound: C[C@H](N)C(=O)NCC(=O)N[C@H]1CSSC[C@@H](C(=O)O)NC(=O)[C@H](CO)NC(=O)[C@H]([C@@H](C)O)NC(=O)[C@H](Cc2ccc(O)c(I)c2)NC(=O)[C@H]([C@@H](C)O)NC(=O)[C@H](CCCCN)NC(=O)[C@H](Cc2c[nH]c3ccccc23)NC(=O)[C@H](Cc2ccccc2)NC(=O)[C@H](Cc2ccccc2)NC(=O)[C@H](CC(N)=O)NC(=O)[C@H](CCCCN)NC1=O [[^125I]tyr^11S-14] (HELM PEPTIDE1{A.G.C.K.N.F.F.W.K.T.[O=C([C@H](Cc1ccc(O)c(I)c1)N[*:1])[*:2]].T.S.C}$PEPTIDE1,PEPTIDE1,3:R3-14:R3$$$V2.0; N-terminus and C-terminus assumed; bridges inferred)
- Bmax ([1]; strain CY602, Gαs): 13.7 fmol/mg total protein
- Bmax ([1]; strain CY603, Scgl): 24.7 fmol/mg total protein
- Bmax ([1]; strain CY624, Gαi): 94.5 fmol/mg total protein
- Kd ([1]; yeast coexpressing Scgl/Gαi2, read-out: calculated Kd): 0.5 nM

Compound: O=C(CCCN1CCC2(CC1)C(=O)NCN2c1ccccc1)c1ccc(F)cc1 [^3H-spiperone, spiperone]
- Bmax (human 5HTla receptor; saturation binding, strain CY382): 3.2 pmol/mg protein
- Bmax (human 5HTla receptor; strain carrying pCHI11): 3.1 pmol/mg

Compound: C[N+](C)(C)CCOC(N)=O [carbachol]
- growth response (porcine SSTR2; LY474 cells, 3 days): not observed
- growth response (rat CCKB receptor [3]; [13]): not observed
- growth response (human GRF receptor; CY990 cells, 3 days): not observed
- growth response (rat SSTR5; LY620 cells, 3 days): not observed

Compound: CC(C)NCC(O)c1ccc(O)c(O)c1 (centres unmarked) [isoproterenol]
- growth response (porcine SSTR2; LY474 cells, 3 days): not observed
- growth response (rat CCKB receptor [3]; [13]): not observed
- growth response (human GRF receptor; CY990 cells, 3 days): not observed
- growth response (rat SSTR5; LY620 cells, 3 days): not observed

Compound: Cc1cc(C(C)(C)C)c(O)c(C)c1CC1=NCCN1 [oxymetazoline]
- growth response (porcine SSTR2; LY474 cells, 3 days): not observed
- growth response (rat CCKB receptor [3]; [13]): not observed
- growth response (human GRF receptor; CY990 cells, 3 days): not observed
- growth response (rat SSTR5; LY620 cells, 3 days): not observed

Compound: CCK-4 (from UniProt P06307 100-103) (peptide)
- amount giving a detectable growth response (rat CCKB receptor (rat)): 10 µg

Compound: CCK-4: cholecystokinin
- amount giving a detectable response (rat CCKB receptor [3]): 10 µg
- diameter of the growth zones, rank order (rat CCKB receptor [3]): CCK-8>gastrin>CCK-4
- growth response (rat CCKB receptor [3]; [13]): dose-dependent growth response

Compound: [^125I-tyr^11]-somatostatin 14 (from UniProt P61278 103-116) (peptide)
- Bmax (fmol/mg total protein) [4]: 24.7
- Bmax (fmol/mg total protein) [5]: 13.7
- percent radioligand bound with Gpp(NH)p compared to untreated samples [6]: 0%
- Bmax [7]: 146 fmol/mg
- percent radioligand bound with Gpp(NH)p compared to untreated samples [8]: 4%
- percent radioligand bound with Gpp(NH)p compared to untreated samples [9]: 22%
- Kd [10]: 0.5 nM
- Bmax (fmol/mg total protein) [11]: 94.5

Compound: hGRF (1-29)-NH2 (from UniProt P01286 32-60) (peptide)
- amount giving a detectable growth response, strain CY990 [12]: 20 nmol

Compound: hGRF (1-29)-NH2: an agonist analog of GRF
- amount giving a detectable response (human GRF receptor): 20 nmol
- growth response (human GRF receptor; CY990 cells, 3 days): dose-dependent growth response

Compound: met-enkephalin: an opiate receptor agonist
- growth response (halo) around disks (rat SSTR2): No detectable response
- growth response (porcine SSTR2): not observed
- growth response (rat CCKB receptor [3]): not observed
- growth response (human GRF receptor): not observed
- growth response (rat SSTR5): not observed

Compound: sandostatin
- diameter of the growth zones, rank order (porcine SSTR2): S-14=MK678>sandostatin
- growth response (porcine SSTR2): dose-dependent growth response
